Experimental data: BindingDB's records for doi:10.1016/j.bmcl.2013.09.026 (Friedrich-Alexander University, 2013)

Target: Alpha-1 adrenergic receptor (Sus scrofa)
Assay: Displacement of [3H]-prazosin from alpha1-adrenergic receptor in pig cerebral cortex

Row | Ki | SMILES
1 | 110 nM | COc1ccccc1N1CCN(Cc2cn(CCCCCCF)nn2)CC1
2 | 490 nM | COc1ccccc1N1CCN(Cc2cn(CCOCCOCCF)nn2)CC1
